Data as given in ChEMBL document CHEMBL1201862, “PubChem BioAssay data set” (2004).
Activity calls are given as the source filed them.

Tests used:
[1] = molecular target: Dual specificity protein phosphatase 3 (Homo sapiens, UniProt P51452); experiment: inhibition constants for human DUSP3 – biochemical, colorimetric, SAR follow-up (AID 2004)
[2] = blockers of SFLLRN-triggered platelet ATP secretion – cell-based, human platelets, luminescence, dry powder, dose response (AID 493100); format: functional
[3] = molecular target: G-protein coupled receptor 55 (Homo sapiens, UniProt Q9Y2T6); experiment: selective activators of receptor GPR55 – imaging, U2OS cells, beta-arrestin-GFP redistribution, primary screen (AID 1961); format: functional
[4] = molecular target: T1, Intestinal-type alkaline phosphatase (Homo sapiens, UniProt P09923); experiment: human intestinal alkaline phosphatase activators, dose response, biochemical, luminescence, uHTS hits (AID 463120); format: functional
[5] = molecular target: T1, Intestinal-type alkaline phosphatase; experiment: Dose Response confirmation of uHTS hits from a small molecule inhibitors of human intestinal alkaline phosphatase via a luminescent assay. [Related pubchem assays (depositor defined):AID2544, AID2574]; format: functional
[6] = test system: P388; experiment: cells; format: functional; conditions: Mus musculus
[7] = molecular target: T2, Eukaryotic translation initiation factor 2-alpha kinase 3 (Homo sapiens, UniProt Q9NZJ5); experiment: Dose response cell-based high-throughput screening assay to measure PERK inhibition. [Related pubchem assays: 1416 ]; format: functional
[8] = test system: BJ; experiment: growth inhibition of engineered Ras-driven BJ cells – cell-based, alamar blue fluorescence, cherrypicked samples, dose response (AID 2631); format: functional; conditions: Homo sapiens;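 also: confirmatory dose-response assay in RAS-dependent BJ fibroblasts engineered with TERT, LT and ST, with cytotoxicity read by fluorescence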
[9] = test system: SN12K1; experiment: cells; format: functional; conditions: Homo sapiens
[10] = luciferase reporter signal suppression in cells – H4 neuroglioma cells, luminescence, dose response (AID 1990); format: functional, cell-based
[11] = test system: P388/ADR; experiment: cells; format: functional; conditions: Mus musculus
[12] = molecular target: T2, Eukaryotic translation initiation factor 2-alpha kinase 3; experiment: Counterscreen assay for PERK inhibitors: Dose response cell-based high throughput screening assay to measure inhibition of PERK at 6 hours. [Related pubchem assays: 1522, 1416 ]; format: functional
[13] = alpha-synuclein stem-loop luciferase translation blockers – H4 neuroglioma cells, luminescence, confirmation (AID 1988); format: functional, cell-based
[14] = alpha-synuclein stem-loop translation blockers – luminescence, H4 neuroglioblastoma cells, dose confirmation, confirmation (AID 2454); format: functional, cell-based;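 also: H4 neuroglioblastoma cells carrying an alpha-synuclein 5'UTR luciferase reporter; potency for inhibition of the luciferase signal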
[15] = Luminescence-based dose response cell-based high throughput screening assay for cytotoxic compounds using the IEC-6 intestinal epithelial cell line. [Related pubchem assays: 1858 (Summary AID.), 1825 (Counterscreen.), 1907 (Confirmation screen.)]; format: functional
[16] = HEK-293T viability loss after treatment – luminescence, T-cell screen hits, cytotoxicity control for TCR NF-kB inhibitor project, dose response (AID 489026); format: functional, cell-based;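 also: cells exposed to compound about 14 hours before the viability readout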
[17] = test system: BJ; experiment: cells; format: functional, cell-based; conditions: Homo sapiens
[18] = Luminescence Cell-Based Dose Response HTS to Identify Inhibitors of 5'UTR Stem-Loop Driven Prion Protein mRNA Translation in H4 Neuroglioblastoma Cells. [Related pubchem assays: 1827 (Project Summary), 1813 (Primary HTS)]; format: functional
[19] = luciferase reporter signal reduction – luminescence, H4-C neuroglioblastoma cells, dose response (AID 2458); format: functional, cell-based;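 also: H4 neuroglioblastoma cells stably carrying a luciferase reporter gene fusion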
[20] = cells; format: functional, cell-based

T1 sequence (P09923 whole entry): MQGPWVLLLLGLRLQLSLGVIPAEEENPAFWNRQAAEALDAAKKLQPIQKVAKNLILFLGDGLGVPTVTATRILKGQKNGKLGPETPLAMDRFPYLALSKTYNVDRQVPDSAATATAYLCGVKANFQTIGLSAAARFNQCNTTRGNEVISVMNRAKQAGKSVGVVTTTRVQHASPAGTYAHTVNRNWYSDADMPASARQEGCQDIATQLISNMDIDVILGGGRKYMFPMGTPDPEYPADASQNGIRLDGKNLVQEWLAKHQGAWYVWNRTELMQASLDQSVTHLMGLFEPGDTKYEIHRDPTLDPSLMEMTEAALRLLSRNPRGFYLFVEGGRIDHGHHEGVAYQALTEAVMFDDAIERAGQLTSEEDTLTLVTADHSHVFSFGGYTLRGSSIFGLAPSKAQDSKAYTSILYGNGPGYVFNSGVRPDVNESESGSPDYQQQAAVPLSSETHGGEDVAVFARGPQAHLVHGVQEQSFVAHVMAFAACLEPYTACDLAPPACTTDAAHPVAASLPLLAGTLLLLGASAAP
T2 sequence (Q9NZJ5 whole entry): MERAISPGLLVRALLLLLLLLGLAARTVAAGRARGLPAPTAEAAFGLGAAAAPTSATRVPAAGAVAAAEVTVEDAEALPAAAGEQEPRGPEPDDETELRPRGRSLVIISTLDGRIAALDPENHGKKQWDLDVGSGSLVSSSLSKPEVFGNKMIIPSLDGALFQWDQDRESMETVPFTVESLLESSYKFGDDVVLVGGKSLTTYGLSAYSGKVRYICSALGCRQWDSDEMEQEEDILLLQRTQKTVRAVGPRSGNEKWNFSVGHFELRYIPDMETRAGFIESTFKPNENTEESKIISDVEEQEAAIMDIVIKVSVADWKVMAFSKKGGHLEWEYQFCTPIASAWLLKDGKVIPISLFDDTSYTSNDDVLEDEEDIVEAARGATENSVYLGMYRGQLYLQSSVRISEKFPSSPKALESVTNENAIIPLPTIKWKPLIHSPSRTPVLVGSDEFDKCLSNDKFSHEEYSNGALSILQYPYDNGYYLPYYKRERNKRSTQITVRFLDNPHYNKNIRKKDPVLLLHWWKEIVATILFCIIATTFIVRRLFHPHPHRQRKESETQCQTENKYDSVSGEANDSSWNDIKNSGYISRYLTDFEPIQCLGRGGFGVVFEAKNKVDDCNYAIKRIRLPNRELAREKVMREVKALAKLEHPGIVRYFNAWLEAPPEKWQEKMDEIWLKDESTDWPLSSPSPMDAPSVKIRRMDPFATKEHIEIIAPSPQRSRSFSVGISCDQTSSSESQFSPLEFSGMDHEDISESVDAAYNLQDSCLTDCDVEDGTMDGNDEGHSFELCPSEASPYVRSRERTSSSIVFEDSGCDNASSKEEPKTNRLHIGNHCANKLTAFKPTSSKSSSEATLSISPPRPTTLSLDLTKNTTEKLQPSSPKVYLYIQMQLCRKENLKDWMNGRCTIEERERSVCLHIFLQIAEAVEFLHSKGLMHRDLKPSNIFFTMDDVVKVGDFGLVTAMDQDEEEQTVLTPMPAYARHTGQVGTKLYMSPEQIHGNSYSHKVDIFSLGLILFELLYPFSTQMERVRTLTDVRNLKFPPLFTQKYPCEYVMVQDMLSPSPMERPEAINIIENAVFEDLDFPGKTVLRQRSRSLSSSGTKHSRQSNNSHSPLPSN
Dual specificity protein phosphatase 3, sequence (P51452 whole entry): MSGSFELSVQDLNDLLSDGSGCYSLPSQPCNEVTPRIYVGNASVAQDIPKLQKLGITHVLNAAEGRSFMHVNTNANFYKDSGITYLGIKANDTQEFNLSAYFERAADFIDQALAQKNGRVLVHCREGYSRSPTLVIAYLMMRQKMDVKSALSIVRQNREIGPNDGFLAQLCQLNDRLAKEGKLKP
G-protein coupled receptor 55, sequence (Q9Y2T6 whole entry): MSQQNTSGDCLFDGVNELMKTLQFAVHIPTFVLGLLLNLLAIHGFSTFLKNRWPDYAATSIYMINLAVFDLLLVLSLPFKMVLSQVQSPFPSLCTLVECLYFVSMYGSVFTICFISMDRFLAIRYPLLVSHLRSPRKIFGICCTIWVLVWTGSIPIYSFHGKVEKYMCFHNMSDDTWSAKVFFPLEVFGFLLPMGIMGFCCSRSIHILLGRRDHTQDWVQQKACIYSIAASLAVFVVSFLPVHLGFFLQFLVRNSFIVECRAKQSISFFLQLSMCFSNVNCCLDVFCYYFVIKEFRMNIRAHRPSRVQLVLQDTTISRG

In the case of `CCN(CC)c1ccc(Nc2nc(-c3sc(N)nc3C)cs2)cc1`, the Ki [1] is reported as 30.2 µM (inactive).
With `O=C(Nc1cccc(NC(=O)C2CCCC2)c1)c1ccccc1Br` the AC50 [2] was 8.81 µM (active).
With `COc1ccc2cc(C)c3nnc(SCC(=O)Nc4nc(-c5ccccc5)cs4)n3c2c1` the EC50 [3] was 1.03 µM (active).
With `O=S(=O)(c1ccccc1)N1CCCC1c1cccs1` (configuration not stated) the EC50 [4] was > 100 µM (inactive) and the IC50 [5] was > 100 µM (inactive).
With `CC[C@@]1(O)C(=O)OCc2c1cc1n(c2=O)Cc2cc3ccccc3nc2-1` [CAMPTOTHECIN] the GI50 [6] was 0.0267 µM (active), the EC50 [7] was > 55.7 µM (not active) and the EC50 [8] was 0.00767 µM (active). For the same molecule, the GI50 [9] was 0.0245 µM (active), the EC50 [10] was 0.134 µM (active) and the GI50 [11] was 0.0254 µM (active). For the same molecule, the EC50 [12] was > 55.7 µM (not active) and the EC50 [13] was < 0.1 µM (active).
For `CSc1nc(N(C)NC(=O)c2cccc(C)c2)c2ccccc2n1`, the EC50 [14] was 0.073 µM (active), the IC50 [15] was 0.14 µM (active) and the EC50 [10] was < 0.1 µM (active). The IC50 [16] was > 80 µM (inactive), the EC50 [17] was 0.272 µM (active) and the EC50 [18] was < 0.1 µM (active). The EC50 [19] was 0.087 µM (active), the EC50 [13] was < 0.1 µM (active) and the EC50 [20] was 0.104 µM (active).
